Data published in paper PMC8601423 (PLoS ONE, 2021).
Several values for one entry are separate records, joined by “and”; a condition that tells them apart may be missing. Equal values may be shown once.

Columns and labels:
[1] = test system: IL-6 mRNA, human coronary microvascular endothelial cells; type: cell-based
[2] = target: T1, purified human ACE2-Fc (Homo sapiens, UniProt Q9BYF1); assay: biochemical; type: binding
T1 construct: purified recombinant human ACE2-Fc (Q18 –S740, peptidase domain) protein; purchased GenScript
T1 sequence (Q9BYF1 18-740): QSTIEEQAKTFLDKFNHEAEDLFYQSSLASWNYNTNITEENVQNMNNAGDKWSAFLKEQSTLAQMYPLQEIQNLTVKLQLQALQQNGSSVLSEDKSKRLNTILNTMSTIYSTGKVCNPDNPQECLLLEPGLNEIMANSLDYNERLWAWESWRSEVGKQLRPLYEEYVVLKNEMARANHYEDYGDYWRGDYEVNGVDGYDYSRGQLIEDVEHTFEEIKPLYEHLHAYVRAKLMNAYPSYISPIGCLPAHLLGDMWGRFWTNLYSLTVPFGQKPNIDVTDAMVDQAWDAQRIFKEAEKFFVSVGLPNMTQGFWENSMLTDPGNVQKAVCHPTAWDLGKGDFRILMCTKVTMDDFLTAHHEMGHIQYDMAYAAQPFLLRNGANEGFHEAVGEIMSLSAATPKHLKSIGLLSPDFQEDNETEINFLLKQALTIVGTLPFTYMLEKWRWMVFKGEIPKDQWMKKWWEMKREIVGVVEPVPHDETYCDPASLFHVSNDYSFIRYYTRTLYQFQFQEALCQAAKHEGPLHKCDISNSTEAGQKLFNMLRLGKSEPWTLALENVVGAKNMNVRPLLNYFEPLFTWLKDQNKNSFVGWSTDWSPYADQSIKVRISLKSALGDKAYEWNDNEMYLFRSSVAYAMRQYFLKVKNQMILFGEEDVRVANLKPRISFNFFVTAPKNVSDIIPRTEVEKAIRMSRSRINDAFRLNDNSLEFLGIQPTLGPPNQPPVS

[3] = test system: SRBD internalisation in ACE2 expressing A549 cells; type: cell-based, human
[4] = test system: MCP-1 mRNA, human coronary microvascular endothelial cells; type: cell-based
[5] = test system: SARS CoV-2 S-protein (Wuhan-Hu-1 strain, spike trimer) expressing PsV, HEK293T cells stably expressing human ACE2; type: cell-based, SARS-CoV-2 (Wuhan-Hu-1 strain)
[6] = test system: VCAM mRNA, human coronary microvascular endothelial cells; type: cell-based
[7] = test system: IL-1β mRNA, human coronary microvascular endothelial cells; type: cell-based

Molecule	IL-6, MEAN [1]	binding to ACE2 (in words) [2]	inhibition of SRBD internalisation (in words) [3]	MCP-1 mRNA expression, peptide alone [4]	S1 induced MCP-1 mRNA expression, peptide pre-treated [4]	IL-6 mRNA expression, peptide alone [1]	S1 induced IL-6 mRNA expression, peptide pre-treated [1]	inhibition of spike PsV cell entry (in words) ([5]; N = 3)	Kd [2] [nM]	S1 induced VCAM mRNA expression, peptide pre-treated [6]	VCAM mRNA expression, peptide alone [6]	IL-1β mRNA expression, peptide alone [7]	S1 induced IL-1β mRNA expression, peptide pre-treated [7]	inhibition of spike PsV cell entry by soluble ACE2 (in words) [5]
Ac-NYGLQGSPFGYQETPYPFCNFVQYG-NH2 [RBM2A-Sc]	0.966 and 1.58	appeared to bind to ACE2 in a dose-dependent manner (Fig 4C) saturation of ACE2 binding was not achieved	did not significantly inhibit SRBD-mediated internalisation	–	–	–	–	–	–	–	–	–	–	–
CC(=O)N[C@@H](CO)C(=O)N[C@@H](CCCCN)C(=O)N[C@H](C(=O)NCC(=O)NCC(=O)N[C@@H](CC(N)=O)C(=O)N[C@@H](Cc1ccc(O)cc1)C(=O)N[C@@H](CC(N)=O)C(=O)N[C@@H](Cc1ccc(O)cc1)C(=O)N[C@@H](CC(C)C)C(=O)N[C@@H](Cc1ccc(O)cc1)C(=O)N[C@@H](CCCNC(=N)N)C(=O)N[C@@H](CC(C)C)C(=O)N[C@@H](Cc1ccccc1)C(=O)N[C@@H](CCCNC(=N)N)C(=O)N[C@@H](CCCCN)C(N)=O)C(C)C [RBM1]	0.7896 and 1.445	–	marked, yet non-significant reduction	did not mimic S1 protein-induced inflammation	did not attenuate the S1 induced inflammatory response	did not mimic S1 protein-induced inflammation	did not attenuate the S1 induced inflammatory response	did not inhibit PsV cell entry	207	did not attenuate the S1 induced inflammatory response	did not mimic S1 protein-induced inflammation	did not mimic S1 protein-induced inflammation	did not attenuate the S1 induced inflammatory response	–
soluble ACE2 protein	–	–	–	–	–	–	–	–	–	–	–	–	–	completely blocked spike PsV cell entry
